Test results reported in US20070032471A1, “Active substance combination comprising a 2,5-dihydroxybenzenesulfonic compound and a potassium ion channel modulator” (LABORATORIOS DEL DR. ESTEVE S.A., priority 2003, published 2007).

Key:
[1] = tested on: diabetic rats; assay: Erectile response to cavernosal nerve electrical stimulation in anaesthetized diabetic rats; assay type: in vivo, rat; details: administered alone, intravenous administration
Description: The in-vivo activity of the active substance combination is tested as described in the reference of Saénz Tejada et al. in International Journal of Impotence Research 2003, 15, 90-93 under “Methods—Erectile responses to cavernosal nerve stimulation in anaesthetized rats”, which is hereby incorporated by reference and forms part of the disclosure. The erectile response to cavemosal nerve electrical stimulation in anaesthetized diabetic rats was determined as described above.

[2] = tested on: human penile resistance arteries; assay: Effect of calcium dobesilate on relaxation induced by K(ATP)-channel activation (pinacidil) in human penile arteries; details: calcium dobesilate 10 μM for 30 min; norepinephrine-contracted arteries; pinacidil 1 nM to 1 mM
Description: (§1) Penile small arteries, […] arteries (lumen diameter 150-400 μm), which are the terminal branches of deep penile arteries, are dissected by carefully removing the adhering trabecular tissue, and arterial ring segments (2 mm long) and are subsequently mounted on two 40 μm wires on microvascular Halpern-Mulvany myographs (J. P. Trading, Aarhus, Denmark) for isometric tension recordings. The vessels are allowed to equilibrate for 30 min in physiological salt solution (PSS) of the following composition (mmol/l): NaCl 119, KCl 4.6, CaCl2 1.5, MgCl2 1.2, NaHCO3 24.9, glucose 11, KH2PO4 1.2, EDTA 0.027 at 37° C. continuously bubbled with 95% 02/5% CO2 mixture to maintain a pH of 7.4. Passive tension and internal circumference of vascular segments when relaxed in situ under a transmural pressure of 100 mmHg (L100), are determined. […] The preparations are then exposed to 125 mM K^+ (KPSS, equimolar substitution of […] in PSS) and the contractile response is measured. […] At this time, responses to pinacidil are again evaluated in NE-contracted arteries. […] Relaxation responses are expressed as percentage of total relaxation (loss in tone) induced by the addition of 0.1 mmol/l papaverine HCl to the chambers at the end of the experiment. All data are expressed as mean±standard error. […]

[3] = tested on: human penile resistance arteries; assay: Effect of calcium dobesilate on relaxation induced by Ca2+-activated K+-channel activation (NS1619) in human penile arteries; details: calcium dobesilate 10 μM for 30 min; norepinephrine-contracted arteries; NS1619 1 nM to 10 μM
Description: as §1, with “NS1619” for “pinacidil”

Compound | erectile response ([1]; 0.3 mg/kg or 5 mg/kg) | potentiation of relaxation induced by activation of K(ATP) channels with pinacidil [2] | potentiation of relaxant responses induced by K(Ca) channel activation [3] | erectile response ([1]; 10 mg/kg)
O=c1[nH]c2cc(C(F)(F)F)ccc2n1-c1cc(C(F)(F)F)ccc1O [NS1619, 1-[2-Hydroxy-5-(trifluoromethyl)phenyl]-5-(trifluoromethyl)-1,3-dihydro-2H-benzimidazol-2-one] | do not modify the erectile response |  |  | 
O=S(=O)(O)c1cc(O)ccc1O [calcium dobesilate, calcium 2,5-dihydroxybenzenesulfonate] |  | significantly potentiates | strongly potentiates | do not modify the erectile response
